Data set [1] deals with P. aeruginosa PA14. How it is done: After overnight incubation at 37 °C, plates were analyzed on a ChemiDoc XRS (Bio-Rad).
Data set [2] has as its system PA14 fed to C. elegans. It counts as in vivo, Caenorhabditis elegans. The protocol:
L1 stage C. elegans worms on Nematode Growth Medium (NGM) plates with E. coli OP50 as a food source were cultivated at room temperature in a humidified chamber until maturation into sterile young adults ([84]), carefully washed off with M9 minimal salts and then collected by pelleting (1200g, 2 min). […] After 3 days, bacteria and debris were removed leaving 50 μl per well of worms to which 50 μl of 6 μM SYTOX Orange was added in M9 minimal salts. The next day, images were captured using both transmission and epifluorescence (excitation/detection = 535/610 nm) on an AMG EVOS FL AMF-4301 fluorescence microscope (Thermo Fisher Scientific).

In data set [3] the test system is wild-type E. coli K-12. The experiment in a line: Alamar Blue viability assay of wild-type E. coli K-12. The settings on record: 100 μM, wild-type E. coli K-12 10^6 cfu/ml, 37 °C, hourly, n = 3. It counts as cell-based, Escherichia coli. (The colour change of resazurin is a common sign of viable cells or microbes.)
Data set [4] has as its system Keio E. coli K-12 single gene knockout strains. The experiment in a line: Forward genetic N-104 resistance screen of Keio single gene knockouts. The settings on record: 100 μM N-104, slope 5 h after/5 h before; resistance cutoff 0.75. It counts as cell-based, Escherichia coli. The protocol: We took advantage of the Alamar Blue viability assay ([85]). Briefly, wells of deep 96-well plates (1896–2000, USA Scientific) each containing 0.8 ml of LB broth supplemented with 50 μg/ml of kanamycin (BP906–5, Fisher Scientific) were singly inoculated with 10 μl aliquots of each of the 3884 Keio E. coli K-12 single gene knockout strains for 16 h at 37 °C on a rotator (160 rpm). A total of 200 μl of a 1:1000 dilution of each (∼10^6 cfu/ml) in 1 mM Na2HPO4, 0.18 mM KH2PO4, 0.27 mM KCl, 13.7 mM NaCl (pH 7.2) containing 10% Alamar Blue (DAL1100, Invitrogen) in wells of black 96-well plates was monitored hourly for 5 h in a SpectraMax M3 plate reader (Molecular Devices) with 3 s agitation before simultaneously reading from the well bottoms at medium PMT voltage with a 590 nm cutoff filter and six flashes per read for the Alamar Blue fluorescence signal (excitation/detection = 560/590 nm). The same hourly monitoring continued for 30 h after the addition of N-104, N-80/C-25 (negative control), or ampicillin (positive control; BP1760–5; Fisher Scientific) at a final concentration of 100 μM each. Data for each of the 3,884 strains were normalized to untreated with 10% Alamar Blue background subtracted as the ratio of the viability slope during the first 5 hours of N-104 treatment versus the slope 5 h previous.

In data set [5] the target is GKY20 (Homo sapiens, UniProt P00734). The experiment in a line: Dot blot binding assay on immobilized GKY20. The settings on record: 20 μM peptide, 2 h at 35 °C, LI-COR detection. The protocol:
After washing three times for 10 min, each with 10 ml of 10 mM Na2HPO4, 1.8 mM KH2PO4, 2.7 mM KCl, 137 mM NaCl (pH 7.2), nitrocellulose membranes were incubated overnight at 4 °C with 1 μg/ml of either rabbit polyclonal ab-C-term with specificity for the C-terminal 54 amino acids of lacritin ([86]) appropriate for N-104 or its analogs, or with rabbit anti-lacritin N-terminus antibody ab-N-term appropriate for C-95. Membranes washed three times for 10 min each with 10 ml of 10 mM Na2HPO4, 1.8 mM KH2PO4, 2.7 mM KCl, 137 mM NaCl (pH 7.2), were then incubated with 0.1 μg/ml of IRDye 680RD labeled donkey antirabbit IgG (926-68073, LI-COR) as described above for LI-COR Odyssey CLx detection.

Data set [6] concerns P. aeruginosa PA14. The experiment in a line: SYTOX Orange PA14 membrane disruption assay. The settings on record: 25 μM peptide, PA14 10^7 cfu/ml, 1 h at 35 °C, 5 μM SYTOX Orange; positive control 70% ethanol.

The results in this text go back to publication PMC12147183, “Lacritin cleavage-potentiated targeting of iron - respiratory reciprocity promotes bacterial death” (The Journal of Biological Chemistry, 2025).

≈ marks a conversion by molar mass, not a printed value. Peptide text beside a SMILES is read from it.

As for `CC(=O)N[C@@H](C)C(=O)N[C@@H](CCC(N)=O)C(=O)N[C@@H](CCCCN)C(=O)N[C@@H](CC(C)C)C(=O)N[C@@H](CC(C)C)C(=O)N[C@@H](CCCCN)C(=O)N[C@@H](CCCCN)C(=O)N[C@@H](Cc1ccccc1)C(=O)N[C@@H](CO)C(=O)N[C@@H](CC(C)C)C(=O)N[C@@H](CC(C)C)C(=O)N[C@@H](CCCCN)C(=O)N1CCC[C@H]1C(=O)N[C@@H](Cc1c[nH]c2ccccc12)C(=O)N[C@@H](C)C(=O)O` [N-104] (Ac-AQKLLKKFSLLKPWA-OH), the “N-104 resistance of PA14 ΔyaiW in CFU assay” value in data set [1] (0, 2 or 5 μM N-104, 10^6 cfu/ml, n = 3) is “partially resistant”. The “bactericidal efficacy versus osmolarity” value in data set [1] (0 to 400 μM N-104 in 30 or 300 mOsm/l phosphate buffer, 8 h, n = 3) is on record as “diminishes as osmolarity increases”. Further, the “minimum inhibitory concentration (MIC)” value in data set [1] (PA14, 8 h) came out at 2 µM (≈ 3.63 µg/mL). The “N-104 resistance of PA14 ΔyaiW in C. elegans survival assay” value in data set [2] (0 or 50 μM N-104, 5 h, 10^7 cfu/ml, n = 3) is “partially resistant”. Further, the “viability of C. elegans fed N-104 alone” value in data set [2] (100 μM N-104 without PA14, 3 days) is given as “did not affect viability”. The “survival of C. elegans fed peptide-treated PA14” value in data set [2] (PA14 10^7 cfu/ml treated 5 h with 100 μM peptide (legend; method says 50 μM), fed to 50 worms for 3 days, SYTOX Orange, n = 3) is “fully survived”. Further, in data set [3], the “bacterial metabolic activity (Alamar Blue)” value is “inhibitory”. In data set [4], the “treated:untreated metabolic slope ratio, ΔSbmA E. coli” value worked out at 0.69 and the “treated:untreated metabolic slope ratio, ΔYaiW E. coli” value is recorded as 0.70. For the same compound, in data set [5], the “binding to nitrocellulose-immobilized GKY20” value is “bound to GKY20”. Besides, in data set [6], the “membrane disruption (SYTOX Orange uptake)” value is “no SYTOX Orange uptake was observed”.
In the case of `C[C@H](NC(=O)CNC(=O)[C@@H](NC(=O)[C@H](CO)NC(=O)[C@H](CC(=O)O)NC(=O)[C@H](CO)NC(=O)[C@H](CO)NC(=O)[C@H](C)NC(=O)[C@H](CC(=O)O)NC(=O)[C@@H](N)CCC(=O)O)[C@@H](C)O)C(=O)N[C@@H](CC(=O)O)C(=O)N1CCC[C@H]1C(=O)N[C@@H](C)C(=O)N[C@@H](CCC(N)=O)C(=O)N[C@@H](CCC(=O)O)C(=O)N[C@@H](C)C(=O)NCC(=O)N[C@H](C(=O)N[C@@H](CO)C(=O)N[C@@H](CCCCN)C(=O)N1CCC[C@H]1C(=O)N[C@@H](CC(N)=O)C(=O)N[C@@H](CCC(=O)O)C(=O)N[C@@H](CCC(=O)O)C(N)=O)[C@@H](C)O` [C-95, reference compound] (H-EDASSDSTGADPAQEAGTSKPNEE-NH2), the “binding to nitrocellulose-immobilized GKY20” value in data set [5] is reported as “Only N-104 bound to GKY20”.
